Assay results as given in patent publication US10322132B2, “Prevention or treatment of uratic or gouty diseases” (SHANTON PHARMA CO., LTD., priority 2015, dated 2019).

Key:
[1] = tested on: MSU-induced gouty arthritis; assay: Pain value in rats with gouty arthritis (electronic Von Frey pain threshold detector); type: in vivo, Male Wistar rats
Description: The rats with gouty arthritis were placed in a metabolic cage, and the palm center of the left foot of each rat was irritated with an electronic Von Frey pain threshold detector. The maximum stress value was recorded when each rat withdrew its foot, and the value was the pain value of that rat.

[2] = Pharmacokinetics experiment in cynomolgus monkeys, intravenous; type: in vivo, cynomolgus monkeys (Macaca fascicularis); conditions: 5 mg/kg, Mean ± SD, n = 3
Description: Three non-naïve cynomolgus monkeys were administered with test compounds A, B and D at a dose of 5 mg/kg by intravenous injection and with test compound C at a dose of 3 mg/kg by intravenous injection, with one compound being tested at a time. Blood was collected from the vein before administration and 1 h, 3 h, 6 h and 24 h after administration, and plasma was isolated. The plasma was analyzed by a 4000 Q Trap LC-MS/MS instrument. The concentrations of the test samples were output by Analyst 1.6.1 from AB Company. The parameters ( ) such as the mean, standard deviation, and coefficient of variation were calculated using Microsoft Excel, wherein the values directly output by Analyst 1.6.1 requires no calculation. PK parameters were calculated using Pharsight Phoenix 6.2 software (NCA model).

[3] = tested on: MSU-induced gouty arthritis; assay: MSU-induced gouty arthritis, toe volume; type: in vivo, Male Wistar rats; conditions: for Inhibition of toe volume change (%): vs model group; for effect on increase of the toe volumes in the test rats (in words): compared with the model group
Description: The experiment was done by reference to Hsin-Pai Lee, Shi-Ying Huang, Yen-You Lin. Soft Coral-Derived Lemnalol Alleviates Monosodium Urate-Induced Gouty Arthritis in Rats by Inhibiting Leukocyte Infiltration and iNOS, COX-2 and c-Fos Protein Expression. […] 2013, 11, 99-113.
One gram of uric acid was weighed, introduced into 200 mL of boiling water and heated. Then, NaOH (2 mol/L) was added until pH reached 9. The solution became clear, and was cooled at room temperature and then left still overnight. MSU was obtained after filtration, which was dried at 60° C. for 24 h and then sterilized at a high temperature of 180° C.
The toe volumes of the rats were measured one day prior to the experiment. The rats were administered with the solvent by subcutaneous injection in the model group at a dose of 5 mL/kg, while the rats were administered with test samples by subcutaneous injection in administration groups at a dose of 5 mg/kg. Rats were anesthetized immediately after administration and were injected with 0.09 mL of MSU suspension into the joint cavity of the left ankle. The volume of the left toe was measured in rats 9 h after the injection of MSU into the ankle joint cavity.
The toe volumes of the rats were measured one day prior to the experiment. The rats were administered with the solvent by subcutaneous injection in the model group at a dose of 15 mL/kg, while the rats were administered with test samples by subcutaneous injection in administration groups at a dose of 15 mg/kg or 10 mg/kg. Rats were anesthetized immediately after administration and were injected with 0.09 mL of MSU suspension into the joint cavity of the left ankle. The volume of the left toe was measured in rats 9 h after the injection of MSU into the ankle joint cavity.
The toe volumes of rats were measured one day prior to the experiment. The rats were administered with the solvent by subcutaneous injection in the model group at a dose of 15 mL/kg, while the rats were administered with the test sample by subcutaneous injection in administration group at a dose of 15 mg/kg. Rats were anesthetized immediately after administration and were injected with 0.09 mL of MSU suspension into the joint cavity of the left ankle. The volume of the left toe in each rat was measured 9 h after the injection of MSU into the ankle joint cavity.

serum uric acid = assay: Uric acid-lowering experiment in cynomolgus monkeys; type: in vivo; design: Reduction rate of serum uric acid: concentration or dose not given beside the values; conditions: for Reduction rate of serum uric acid / Content of serum uric acid: intravenous; for Reduction rate of serum uric acid: 3 h after administration vs before administration; for Content of serum uric acid: 3 h after administration
Description: The experiment was done by reference to Komoriya K, Osada Y, Hasegawa M, Horiuchi H, Kondo S, Couch R C, Griffin T B. Hypouricemic effect of allopurinol and the novel xanthine oxidase inhibitor TEI-6720 in chimpanzees. Eur J Pharmacol. 1993 Dec. 21; 250(3): 455-60.
Each compound was tested in three non-naïve cynomolgus monkeys (1 #, 2 # and 3 #), wherein the monkeys were administered with test samples by intravenous injection. Blood was collected from the vein before administration and 1 h, 3 h, 6 h and 24 h after administration. The blood was left still at room temperature. The serum was collected by centrifugation. The content of uric acid in serum was measured. Reduction rate of serum uric acid=(average uric acid content before administration−average uric acid content after administration)/average uric acid content before administration*100%.

[4] = biological target: T1, human urate transporter 1 (hURAT1) (Homo sapiens, UniProt Q96S37); assay: Uptake of 14C-labeled uric acid in hURAT1 transfected cells; type: cell-based; conditions: 14C uric acid uptake, hURAT1-transfected HEK-293T cells, 5 min at 37° C.; read-out: IC50 (μM), inhibition of hURAT1 activity
T1 construct: expressed in transfected cells; host or cells: HEK-293T
T1 sequence (Q96S37 1-553): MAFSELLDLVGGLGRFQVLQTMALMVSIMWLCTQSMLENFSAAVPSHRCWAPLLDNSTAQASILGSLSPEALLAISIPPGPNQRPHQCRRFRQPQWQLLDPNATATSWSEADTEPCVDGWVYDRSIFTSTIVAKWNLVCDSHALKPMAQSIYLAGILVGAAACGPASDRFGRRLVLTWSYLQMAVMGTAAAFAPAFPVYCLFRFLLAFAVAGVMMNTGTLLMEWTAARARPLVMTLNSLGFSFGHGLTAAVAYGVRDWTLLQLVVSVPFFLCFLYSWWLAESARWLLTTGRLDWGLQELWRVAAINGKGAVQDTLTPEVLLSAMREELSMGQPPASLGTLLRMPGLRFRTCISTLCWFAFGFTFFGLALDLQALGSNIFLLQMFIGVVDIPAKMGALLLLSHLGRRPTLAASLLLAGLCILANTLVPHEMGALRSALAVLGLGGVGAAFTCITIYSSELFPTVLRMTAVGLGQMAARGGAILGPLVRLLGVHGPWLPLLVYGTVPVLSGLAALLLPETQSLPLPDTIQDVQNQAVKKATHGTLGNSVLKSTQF
Description: The compounds were prepared into the stock solutions (5 mM) with dimethyl sulfoxide (DMSO). This experiment involved 8 concentrations in total. The final concentrations were 5000 nM, 1250 nM, 312.5 nM, 78.1 nM, 19.5 nM, 4.9 nM, 1.2 nM and 0.3 nM, respectively.
Preparation of buffers: chlorine-free HBSS buffer (125 mM sodium gluconate, 4.8 mM potassium gluconate, 1.3 mM calcium gluconate, 1.2 mM KH2PO4, 1.2 mM MgSO4, 5.6 mM glucose, 25 mM 4-hydroxyethylpiperazine ethanesulfonic acid (HEPES) (pH 7.4)); lysis buffer (100 mM NaOH)
Transfected cells stably expressing human urate transporter 1 (hURAT1) were obtained by: placing human embryonic kidney cells (HEK-293T) in a cell culture plate containing complete medium, incubating the cells for 24 h at 37° C. in 5% CO2, rinsing the cells with phosphate buffered saline (PBS) followed by trypsin digestion to prepare a suspension containing single cells; placing 8×10^6 cells a cell culture plate, adding dropwise TransIT-293 Reagent:DNA complexes (1.5 ml of Opti-MEM I Reduced-Serum Medium, 15 g of plasmid DNA, and 45 μL of TransIT-293 Reagent were mixed uniformly and then incubated at room temperature for 30 min) to different areas of the cell culture plate, gently shaking the cell culture plate to homogeneously distribute the TransIT-293 Reagent:DNA complexes, and incubating the cells for 48 h at 37° C. in 5% CO2.
Uptake of ^14C-labeled uric acid in hURAT1 transfected cells: (1) hURAT1-transfected cells were placed in a Poly-D-lysine 96-well microplate at a cell density of 6×10^4/well, and left still overnight at 37° C. in 5% CO2; (2) after the cells were placed in the Poly-D-lysine 96-well microplate for 12 h, the cells were washed for 3 times with 200 μl of pre-heated chlorine-free HBSS buffer per well, and the washing solution in the microplate was removed; (3) 50 μl of uric acid-containing [8-14C] […]

[5] = Uric acid-lowering test in monkeys having hyperuricemia (UA subcutaneous injection); type: in vivo, cynomolgus monkeys; conditions: cynomolgus monkey, serum, sc; uric acid (UA) by subcutaneous injection at the nape, cynomolgus monkeys from the model group; read-out: half-life (t½z) (converted)
Description: The experiment was conducted by reference to Komoriya K, Osada Y, Hasegawa M, Horiuchi H, Kondo S, Couch R C, Griffin T B. Hypouricemic effect of allopurinol and the novel xanthine oxidase inhibitor TEI-6720 in chimpanzees. Eur J Pharmacol. 1993 Dec. 21; 250(3): 455-60.
In the Model group, three non-naïve cynomolgus monkeys (1 #, 2 # and 3 #) were administered with UA by subcutaneous injection at the nape. Blood was collected from the vein before UA administration and 0.5 h, 1 h, 2 h, 4 h, 6 h and 24 h after UA administration. The blood was left still at room temperature. The serum was collected by centrifugation. The content of serum uric acid was measured.
In the Administration group, three non-naïve cynomolgus monkeys (1 #, 2 # and 3 #) were administered with the test sample by intravenous injection after 2 weeks of clearance. Blood was collected from the vein before administration and 2 h after administration of test sample. Then, the monkeys were administered with UA by subcutaneous injection at the nape and blood was collected from the vein 1 h, 2 h and 4 h after the UA administration. The blood was left still at room temperature. The serum was collected by centrifugation. The content of serum uric acid was measured. Reduction rate of serum uric acid in healthy monkeys administered with test sample=(average uric acid content before administration−average uric acid content 2 h after administration of test sample)/average uric acid content before administration*100%, Reduction rate of serum uric acid in monkeys having hyperuricemia after administration of test sample=(uric acid content after UA administration in the model group−uric acid content after UA administration in the administration group)/uric acid content in the model group*(100%).
That was, the samples were collected before administration, 2 h after administration of test sample and 1 h, 2 h and 4 h after UA administration for determination of the serum uric acid content. The contents of serum uric acid in the model group and the administration group and the reduction rates of serum uric acid were shown in the following Tables 3-1, 3-2 and 3-3, respectively.

[6] = Example 6, 15 mg/kg subcutaneous, 9 h after MSU

CCCCn1c(=O)[nH]c(=O)c2[nH]c(Cl)nc21 [Compound B, 8-chloro-3-butyl-3,7-dihydro-1H-purine-2,6-dione]
Pain value ([1]; Example 6, 15 mg/kg subcutaneous, left foot, Von Frey): 37.2 g
effect on pain in the test rats (in words) ([1]; Example 6, compared with the model group): significantly reduce
t1/2z [2]: 163 ± 21 min
Change of toe volume ([3]; Example 4, 5 mg/kg subcutaneous, 9 h after MSU injection into left ankle joint cavity): 0.349 mL
Inhibition of toe volume change (%) ([3]; Example 4, 5 mg/kg subcutaneous, 9 h after MSU): 30.8%
effect on increase of the toe volumes in the test rats (in words) ([3]; Example 4, 5 mg/kg): significantly inhibit
Toe volume change [3, 6]: 0.229 mL
Inhibition of toe volume change (%) [3, 6]: 49.1%
effect on increase of the toe volumes in the test rats (in words) ([3]; Example 6, 15 mg/kg): significantly inhibit
effect on serum uric acid levels in the test monkeys (in words) (serum uric acid; compared to the levels measured before administration): significantly reduce
Reduction rate of serum uric acid (serum uric acid; animal 1#): 17.5%
Reduction rate of serum uric acid (serum uric acid; animal 2#): 9.2%
Reduction rate of serum uric acid (serum uric acid; mean): 14.1%
Content of serum uric acid (serum uric acid; animal 1#): 69.1 µmol/L
Content of serum uric acid (serum uric acid; animal 2#): 52.3 µmol/L
Content of serum uric acid (serum uric acid; mean): 60.7 µmol/L
IC50 [4]: 3.02 µM

O=c1[nH]c(=O)c2[nH]c(=O)[nH]c2[nH]1 [uric acid (UA), uric acid]
half-life [5]: 32.4 min
